Experimental data from patent US20040106578A1, “Fungicidal compositions based on pyridylmethylbenzamide derivatives and at least one complex III inhibiting compound” (priority 2001, published 2004).

System: Plasmopara viticola
Test: Test of a composition against vine downy mildew, preventive action, on grapevine plants
Type: in vivo
Settings: grapevine var. Chardonnay sprayed 3 days before inoculation, evaluated 7 days after contamination, Abbott formula, untreated control 90% sporulated surface
Description: Test of a Composition Against Vine Downy Mildew (Plasmopara Viticola; Preventive Action)
Grapevine plants are grown (var. Chardonnay) on sandy soil in plastic pots, with one plant per pot. The plants which are two months old (6 to 7 developed leaves) are sprayed with compound (I) and compound (II), either alone, or as a mixture.
The fungicidal active ingredients, either alone, or as a mixture, are applied at a dose equivalent to 500 litres/ha.
The compound (I)/compound (II) ratio studied is 1/2.
Three days after the treatment, each plant is inoculated by spraying an aqueous suspension of Plasmopara viticola sporangia obtained from contaminated leaves. The sporangium concentration is about 100 000 units per ml.
After contamination, the plants are incubated for two days at 18° C. under a saturated atmosphere, and then for 5 days at about 20° C. with a relative humidity of 90-100%.
Seven days after the contamination, the symptoms are evaluated in terms of underside surface of the leaves which are infected, compared with the untreated but contaminated plants.
The efficacy of the treatment is calculated using the following Abbott formula: [formula]
The concentrations of the fungicides, alone or as a mixture, giving 50%, 70% or 90% efficacy for each component, in the appropriate test, are determined based on the dose/response sigmoid curve model and their corresponding confidence intervals. […]

Row | SMILES | Efficacy (%) (10 mg/l) | Efficacy (%) (5 mg/l)
1 | CSC1=N[C@@](C)(c2ccccc2)C(=O)N1Nc1ccccc1 [Fenamidone, (S)-1-anilino-4-methyl-2-methylthio-4-phenylimidazolin-5-one] | 72 | 
2 | O=C(NCc1ncc(C(F)(F)F)cc1Cl)c1c(Cl)cccc1Cl [Compound (Ia), 2,6-dichloro-N-{[3-chloro-5-(trifluoromethyl)-2-pyridinyl]methyl}benzamide] |  | 40
